Columns and labels:
[1] = tested on: MDA-MB-468; experiment: NCI 60 one dose (10 μM) anticancer assay; type: cell-based; conditions: Homo sapiens, 10 µM one dose, Breast Cancer, read-out: Growth Inhibition % MDA-MB-468
Experimental: (§1) Some of the synthesized compounds were selected by the NCI, Bethesda, MD, USA for evaluation of their anticancer activity. An in vitro one dose (10 μM) anticancer assay was conducted on a full NCI 60-cell line panel derived from 9 different cancer types. Table 2 presents the percent of growth inhibition of some cell lines. […] K-562 and MOLT-4 from leukemia, NCI-H522 from non-small cell lung cancer, HCT-116 from colon cancer, SK-MEL-5 and UACC-62 from melanoma, UO-31 from renal cancer, PC-3 from prostate cancer and HS 578T and T-47D from breast cancer are the most sensitive cell lines to the tested compounds. No growth inhibition was observed from the selected compounds against COLO205, HCC-2998, MALME-3M, SK-MEL-28, DU-145 and BT-549 cell lines. […] Against UO-31 from renal cancer and PC-3 from prostate cancer, it inhibited the growth of 44% and 58% of the cancer cells, respectively.

[2] = tested on: NCI-H23; experiment: NCI 60 one dose (10 μM) anticancer assay; type: cell-based; conditions: Homo sapiens, 10 µM one dose, Non-small cell lung Cancer, read-out: Growth Inhibition % NCI-H23
Experimental: as §1

[3] = tested on: NCI-H522; experiment: NCI 60 one dose (10 μM) anticancer assay; type: cell-based; conditions: Homo sapiens, 10 µM one dose, Non-small cell lung Cancer, read-out: Growth Inhibition % NCI-H522
Experimental: as §1

[4] = tested on: MDA-MB-231/ATTC; experiment: NCI 60 one dose (10 μM) anticancer assay; type: cell-based; conditions: Homo sapiens, 10 µM one dose, Breast Cancer, read-out: Growth Inhibition % MDA-MB-231/ATTC
Experimental: as §1

[5] = tested on: SW-620; experiment: NCI 60 one dose (10 μM) anticancer assay; type: cell-based; conditions: Homo sapiens, 10 µM one dose, Colon Cancer, read-out: Growth Inhibition % SW-620
Experimental: as §1

[6] = tested on: TK-10; experiment: NCI 60 one dose (10 μM) anticancer assay; type: cell-based; conditions: Homo sapiens, 10 µM one dose, Renal Cancer, read-out: Growth Inhibition % TK-10
Experimental: as §1

[7] = tested on: A549/ATTC; experiment: NCI 60 one dose (10 μM) anticancer assay; type: cell-based; conditions: Homo sapiens, 10 µM one dose, Non-small cell lung Cancer, read-out: Growth Inhibition % A549/ATTC
Experimental: as §1

[8] = tested on: MOLT-4; experiment: NCI 60 one dose (10 μM) anticancer assay; type: cell-based; conditions: Homo sapiens, 10 µM one dose, Leukemia, read-out: Growth Inhibition % MOLT-4
Experimental: as §1

[9] = tested on: OVCAR-8; experiment: NCI 60 one dose (10 μM) anticancer assay; type: cell-based; conditions: Homo sapiens, 10 µM one dose, Ovarian Cancer, read-out: Growth Inhibition % OVCAR-8
Experimental: as §1

[10] = tested on: NCI-H460; experiment: NCI 60 one dose (10 μM) anticancer assay; type: cell-based; conditions: Homo sapiens, 10 µM one dose, Non-small cell lung Cancer, read-out: Growth Inhibition % NCI-H460
Experimental: as §1

[11] = tested on: HS 578T; experiment: NCI 60 one dose (10 μM) anticancer assay; type: cell-based; conditions: Homo sapiens, 10 µM one dose, Breast Cancer, read-out: Growth Inhibition % HS 578T
Experimental: as §1

[12] = tested on: HT29; experiment: NCI 60 one dose (10 μM) anticancer assay; type: cell-based; conditions: Homo sapiens, HT-29; 10 µM one dose; Colon Cancer; read-out: Growth Inhibition % HT29
Experimental: as §1

[13] = tested on: UO-31; experiment: NCI 60 one dose (10 μM) anticancer assay; type: cell-based; conditions: Homo sapiens, 10 µM one dose, Renal Cancer, read-out: Growth Inhibition % UO-31
Experimental: as §1

[14] = tested on: T-47D; experiment: NCI 60 one dose (10 μM) anticancer assay; type: cell-based; conditions: Homo sapiens, T47D; 10 µM one dose; Breast Cancer; read-out: Growth Inhibition % T-47D
Experimental: as §1

[15] = tested on: NCI-H322M; experiment: NCI 60 one dose (10 μM) anticancer assay; type: cell-based; conditions: Homo sapiens, 10 µM one dose, Non-small cell lung Cancer, read-out: Growth Inhibition % NCI-H322M
Experimental: as §1

[16] = tested on: U251; experiment: NCI 60 one dose (10 μM) anticancer assay; type: cell-based; conditions: Homo sapiens, U-251; 10 µM one dose; CNS Cancer; read-out: Growth Inhibition % U251
Experimental: as §1

[17] = tested on: SK-MEL-5; experiment: NCI 60 one dose (10 μM) anticancer assay; type: cell-based; conditions: Homo sapiens, 10 µM one dose, Melanoma, read-out: Growth Inhibition % SK-MEL-5
Experimental: as §1

[18] = tested on: SNB-19; experiment: NCI 60 one dose (10 μM) anticancer assay; type: cell-based; conditions: Homo sapiens, 10 µM one dose, CNS Cancer, read-out: Growth Inhibition % SNB-19
Experimental: as §1

[19] = tested on: MDA-MB-435; experiment: NCI 60 one dose (10 μM) anticancer assay; type: cell-based; conditions: Homo sapiens, 10 µM one dose, Melanoma, read-out: Growth Inhibition % MDA-MB-435
Experimental: as §1

[20] = tested on: HL-60(TB); experiment: NCI 60 one dose (10 μM) anticancer assay; type: cell-based; conditions: Homo sapiens, 10 µM one dose, Leukemia, read-out: Growth Inhibition % HL-60(TB)
Experimental: as §1

[21] = tested on: KM12; experiment: NCI 60 one dose (10 μM) anticancer assay; type: cell-based; conditions: Homo sapiens, 10 µM one dose, Colon Cancer, read-out: Growth Inhibition % KM12
Experimental: as §1

[22] = tested on: 786-0; experiment: NCI 60 one dose (10 μM) anticancer assay; type: cell-based; conditions: Homo sapiens, 10 µM one dose, Renal Cancer, read-out: Growth Inhibition % 786-0
Experimental: as §1

[23] = tested on: OVCAR-4; experiment: NCI 60 one dose (10 μM) anticancer assay; type: cell-based; conditions: Homo sapiens, 10 µM one dose, Ovarian Cancer, read-out: Growth Inhibition % OVCAR-4
Experimental: as §1

[24] = tested on: NCI/ADR-RES; experiment: NCI 60 one dose (10 μM) anticancer assay; type: cell-based; conditions: Homo sapiens, 10 µM one dose, Ovarian Cancer, read-out: Growth Inhibition % NCI/ADR-RES
Experimental: as §1

[25] = tested on: UACC-62; experiment: NCI 60 one dose (10 μM) anticancer assay; type: cell-based; conditions: Homo sapiens, 10 µM one dose, Melanoma, read-out: Growth Inhibition % UACC-62
Experimental: as §1

[26] = tested on: M14; experiment: NCI 60 one dose (10 μM) anticancer assay; type: cell-based; conditions: Homo sapiens, 10 µM one dose, Melanoma, read-out: Growth Inhibition % M14
Experimental: as §1

[27] = tested on: MCF7; experiment: NCI 60 one dose (10 μM) anticancer assay; type: cell-based; conditions: Homo sapiens, 10 µM one dose, Breast Cancer, read-out: Growth Inhibition % MCF7
Experimental: as §1

[28] = tested on: HepG2 cell line; experiment: In vitro cytotoxic activity, Sulfo-Rhodamine-B (SRB) assay; type: cell-based, human; conditions: Homo sapiens, HepG2, 48 h, SRB assay, 48 h; mean of three independent experiments; read-out: IC50 (μM) on HepG2 Cell Line
[29] = tested on: SR; experiment: NCI 60 one dose (10 μM) anticancer assay; type: cell-based; conditions: Homo sapiens, 10 µM one dose, Leukemia, read-out: Growth Inhibition % SR
Experimental: as §1

Structure (SMILES) | inhibition at 10 µM [1] [%] | inhibition at 10 µM [2] [%] | inhibition at 10 µM [3] [%] | inhibition at 10 µM [4] [%] | inhibition at 10 µM [5] [%] | inhibition at 10 µM [6] [%] | inhibition at 10 µM [7] [%] | inhibition at 10 µM [8] [%] | inhibition at 10 µM [9] [%] | inhibition at 10 µM [10] [%] | inhibition at 10 µM [11] [%] | inhibition at 10 µM [12] [%] | inhibition at 10 µM [13] [%] | inhibition at 10 µM [14] [%] | inhibition at 10 µM [15] [%] | inhibition at 10 µM [16] [%] | inhibition at 10 µM [17] [%] | inhibition at 10 µM [18] [%] | inhibition at 10 µM [19] [%] | inhibition at 10 µM [20] [%] | other results
C/C(=N\NC(=O)Cn1c(C(C)C)nc2ccccc21)c1ccccc1 [Compound 14a, (E)-2-(2-Isopropyl-1H-benzo[d]imidazol-1-yl)-N′-(1-phenylethylidene)acetohydrazide] | 29 | < 10 | < 10 | < 10 | 18 | < 10 | < 10 | < 10 | < 10 | < 10 | 24 | < 10 | < 10 | < 10 | < 10 | < 10 | < 10 | < 10 | < 10 | < 10 | inhibition at 10 µM [21]: < 10%; inhibition at 10 µM [22]: < 10%; inhibition at 10 µM [23]: < 10%; inhibition at 10 µM [24]: < 10%; inhibition at 10 µM [25]: 13%; inhibition at 10 µM [26]: < 10%; inhibition at 10 µM [27]: < 10%; IC50 [28]: 25.9 µM
CC(C)c1nc2ccccc2n1CC(=O)N/N=C/c1cccc(OCc2ccccc2)c1 [Compound 17a, (E)-N′-(3-(Benzyloxy)benzylidene)-2-(2-isopropyl-1H-benzo[d]imidazol-1-yl)acetohydrazide] | 47 | 39 | 33 | 25 | < 10 | < 10 | 16 | 50 | < 10 | < 10 | 20 | < 10 | 44 | 32 | < 10 | < 10 | 50 | 22 | < 10 | 32 | inhibition at 10 µM [29]: 64%; inhibition at 10 µM [21]: < 10%; inhibition at 10 µM [22]: 24%; inhibition at 10 µM [23]: < 10%; inhibition at 10 µM [24]: < 10%; inhibition at 10 µM [25]: 41%; inhibition at 10 µM [26]: 16%; inhibition at 10 µM [27]: < 10%; IC50 [28]: 1.98 µM
Cc1ccc(-c2nc3ccccc3n2CC(=O)N/N=C/c2cccc(OCc3ccccc3)c2)o1 [Compound 17b, (E)-N′-(3-(Benzyloxy)benzylidene)-2-(2-(5-methylfuran-2-yl)-1H-benzo[d]imidazol-1-yl)acetohydrazide] | 20 | 14 | 28 | 25 | 13 | 10 | 42 | 58 | 26 | 27 | 25 | 29 | 57 | 49 | 21 | 36 | 33 | 21 | 21 | 50 | inhibition at 10 µM [29]: 25%; inhibition at 10 µM [21]: 23%; inhibition at 10 µM [22]: 26%; inhibition at 10 µM [23]: 21%; inhibition at 10 µM [24]: 29%; inhibition at 10 µM [25]: 29%; inhibition at 10 µM [26]: 24%; inhibition at 10 µM [27]: 48%; IC50 [28]: 10 µM
CC(C)c1nc2ccccc2n1CC(=O)N/N=C/c1ccc(OCc2ccccc2)cc1 [Compound 17c, (E)-N′-(4-(Benzyloxy)benzylidene)-2-(2-isopropyl-1H-benzo[d]imidazol-1-yl)acetohydrazide] | < 10 | < 10 | 26 | < 10 | < 10 | < 10 | < 10 | 25 | < 10 | < 10 | 16 | < 10 | 28 | 24 | < 10 | < 10 | < 10 | < 10 | < 10 | < 10 | inhibition at 10 µM [29]: < 10%; inhibition at 10 µM [21]: < 10%; inhibition at 10 µM [22]: < 10%; inhibition at 10 µM [24]: < 10%; inhibition at 10 µM [25]: 26%; inhibition at 10 µM [26]: < 10%; inhibition at 10 µM [27]: < 10%; IC50 [28]: 20.2 µM

Source: paper PMC7071059, “Targeting Receptor Tyrosine Kinase VEGFR-2 in Hepatocellular Cancer: Rational Design, Synthesis and Biological Evaluation of 1,2-Disubstituted Benzimidazoles” (Molecules, 2020)
